From patent US20210348164A1, “ENDOGENOUS CYTOPLASMIC ALU COMPLEMENTARY DNA IN AGE-RELATED MACULAR DEGENERATION” (University of Virginia Patent Foundation, priority 2018, published 2021)
“Also recorded” adds a separate entry of the source.

System: Alu cDNA in primary human RPE cells
Experiment: Alu cDNA in primary human RPE cells (Alu c-PCR, real-time PCR, in situ hybridization, equator blotting)
Assay type: cell-based
Conditions: primary human RPE cells exposed to Alu RNA, heat shock, or DICER1 AS; NNRTIs at high doses
Method: Cell culture and transfection. Primary mouse and human RPE cells were isolated as previously described (Kerur et al., 2018). All cells were maintained at 37° C. in a 5% CO2 environment. Mouse RPE cells were cultured in DMEM supplemented with 20% FBS and penicillin/streptomycin antibiotics at standard concentrations; primary human RPE cells were maintained in DMEM supplemented with 10% FBS and antibiotics. The human RPE cell line ARPE19 was cultured as previously described (Kerur et al., 2018) and maintained in DMEM-F12 containing penicillin/streptomycin, Fungizone, and gentamicin. HEK293T cells were cultured in DMEM with 10% fetal bovine serum (FBS) with 100 U/ml penicillin/streptomycin and 2 mM L-glutamine. Primary wild-type mouse bone marrow-derived macrophages (BMDMs) were isolated, and cultured in Iscove's Modified Dulbecco's Medium (IMDM) supplemented with 30% L929 supernatant containing macrophage-stimulating factor, nonessential amino acids, sodium pyruvate, 10% FBS and antibiotics, 50 μM β-mercaptoethanol (Seo et al., 2015), and serum starved in IMDM with 1% FBS and 100 U/ml penicillin/streptomycin overnight prior to LPS stimulation. NRTIs or NNRTIs were added 30 minutes prior to LPS stimulation and again 30 minutes prior to ATP activation. LPS (100 ng/mL) was added for 3-4 hours prior to the addition of ATP. Cell lysates were collected 30 minutes after addition of ATP (5 mM). Primary human subcutaneous pre-adipocytes (Catalogue No. PCS-210-010, ATCC, Manassas, Va., United States of America) and primary human dermal fibroblasts (Catalogue No. PCS-201-012, ATCC) were grown in fibroblast basal medium with fibroblast growth kit for low serum (ATCC).
Umbilical artery vascular smooth muscle cells (Catalogue No. CC-2579, Lonza, Morristown, N.J., United States of America) were grown in SMGM™-2 Smooth Muscle Growth Medium-2 BULLETKIT™ (Lonza). Primary human skeletal myoblasts (Catalogue No. A11440, Thermo Fisher Scientific) were grown in DMEM with 2% horse serum. Primary human epidermal keratinocytes (Catalogue NO. CO215C, Thermo Fisher Scientific) were grown in EPILIFE® Medium (Thermo Fisher Scientific). Human umbilical vein endothelial cells (HUVEC) were grown in HUVEC EGM™-2 Media (Lonza). Primary human peripheral blood mononuclear cells (Catalogue NO. PCS-800-011, ATCC) were directly used without culture for experiments. RPMI 1640 medium with 10% human serum with human GM-CSF (Miltenyi Biotec Inc., Auburn, Calif., United States of America) was used as media during the experiment. Transfections were performed according to the manufacturer's instructions (LIPOFECTAMINE® 2000, Invitrogen). For transfection of primary human peripheral blood mononuclear cells, HiPerFect Transfection Reagent (Qiagen) was used as previously described (Troegeler et al., 2014). NRTIs were administered 60 minutes before transfection and added again upon replacement of media at 8 hours. To induce acid injury or osmotic stress, primary human RPE cells were treated with HCl (pH 4.0 media) or H2O for 30 minutes, 1 hour, and 2 hours at 37° C. in 5% CO2, respectively. NIH3T3 Tet-ON cells were cultured in DMEM with 10% tetracycline-free fetal bovine serum (FBS) with 100 U/ml penicillin/streptomycin. NIH3T3 Tet-ON cells were transfected with pLD401 (see Taylor et al., 2013; gift of J. D. Boeke, Institute for Systems Genetics, NYU Langone Health, New York, New York, United States of America) and human L1 ORF1p abundance was monitored after 24 hours of doxycycline induction. […]

Molecule	Alu cDNA induction
L1 siRNA: siRNA targeting L1; cholesterol-conjugated mouse L1 siRNA (SEQ ID NOs: 48 and 49) in vivo, human L1 siRNA sequences in human cells (chain 1 ACUAUUACUCUGAUACCTT; chain 2 UGUACUAAGGUCAAAUCTT; cholesterol conjugated, position not given here)	prevented the production of Alu cDNA; also recorded: reduced
O=C1Nc2ccc(Cl)cc2[C@@](C#CC2CC2)(C(F)(F)F)O1 [EFV, efavirenz]	prevented Alu cDNA synthesis; also recorded: reduced
CC(C)Nc1cccnc1N1CCN(C(=O)c2cc3cc(NS(C)(=O)=O)ccc3[nH]2)CC1 [DLV, delavirdine]	prevented Alu cDNA synthesis; also recorded: reduced
Cc1ccnc2c1NC(=O)c1cccnc1N2C1CC1 [NVP, nevirapine]	did not prevent Alu cDNA synthesis
